{"source": "patent US10005801B2", "about": "(priority 2016, dated 2018)", "key": {"H9c2 cardiomyoblasts": {"test_system": "H9c2 cardiomyoblasts", "test": "Anoxia/reoxygenation (A/R)-induced cellular injury, CCK-8 cell viability", "format": "cell-based", "conditions": "for protection against A/R-induced cellular damage (cell viability): H9c2, 12, 25 and 50 μM for 1 h during anoxia, then reoxygenation", "method": "FIG. 3B. […] During anoxia various concentrations of JK-1 and JK-2 were added into medium and incubated for 1 h, respectively. Then the cells underwent a reoxygenation process. After the treatments, the CCK-8 assay was performed to detect cell viability. Data was expressed as the mean±SEM. **P<0.01 vs the control group, #P<0.05, ##P<0.01 vs A/R alone group.\nThe cell counting kit (CCK)-8 was applied to measure the cell viability of HeLa cells cultured in 96-well plates. After the indicated cell treatment, 100 μL of CCK-8 solution at 1:10 dilution was added to each well and cells were incubated for a further 3 h at 37° C. Absorbance was measured at 450 nm with a microplate reader. The mean optical density (OD) of 4 wells in each group was used to calculate cell viability as follows: (experiments were performed in triplicate)\nThe effect of H2S as a cardioprotective agent against myocardial ischemia reperfusion (MI/R) injury is known in the art. The mechanisms include reducing oxidative stress, preserving mitochondrial function, decreasing myocardial inflammation, and improving angiogenesis. […] To establish the cellular model of MI/R injury, H9c2 cardiomyoblasts were exposed to anoxia/reoxygenation (A/R) treatment, together with increasing concentrations of H2O2 (100-400 μM). […] Since the median lethal concentration of H2O2 in H9c2 cells was approximately 400 μM, this concentration was used for our studies.\nThe protective effects of the disclosed compounds against A/R-induced cellular damage was examined. In these experiments, H9c2 cells were pretreated with JK-1 or JK-2 at various concentrations (12, 25 and 50 μM) for 1 h during anoxia. Cells then underwent a reoxygenation process, after which cell viability was analyzed."}, "[1]": {"test_system": "TAC-induced heart failure", "test": "Transverse aortic constriction (TAC) heart failure model, echocardiography", "format": "in vivo, C57BL6/J mice", "conditions": "100 μg/kg once daily i.p. from 3 weeks post-TAC, 14 weeks", "method": "FIG. 7. Left ventricular dimensions at end-diastole (LVEDD) and at end-systole in millimeters (mm) at baseline and following heart failure in C57BL6/J mice. Mice were subjected to transverse aortic constriction (TAC) surgery to induce pressure overload hypertrophy and heart failure with reduced ejection fraction. LVEDD and LVESD were measured using high-resolution echocardiography at baseline and every 2 weeks thereafter for a period of 14 weeks. The H2S donor, (JK1) was administered starting at 3 weeks post-TAC at a dose of 100 μg/kg administered once daily via intraperitoneal injection. […] Following heart failure the heart dilates and this adverse remodeling response contributes to reduced cardiac function.\nFIG. 8. Interventricular septum thickness measured at end-diastole (IVSd) and at end-systole (IVSs) in millimeters (mm) at baseline and following heart failure in C57BL6/J mice. Mice were subjected to transverse aortic constriction (TAC) surgery to induce pressure overload hypertrophy and heart failure with reduced ejection fraction. IVSd and IVSs were measured using high-resolution echocardiography at baseline and every 2 weeks thereafter for a period of 14 weeks. The H2S donor, (JK1) was administered starting at 3 weeks post-TAC at a dose of 100 μg/kg administered once daily via intraperitoneal injection. […] Myocardial wall thinning is a significant pathological component of heart failure.\n(§1) FIG. 9. Left ventricular (LV) posterior wall thickness (PW) measured at end-diastole (d) and at end-systole (s) in millimeters (mm) at baseline and following heart failure in C57BL6/J mice. Mice were subjected to transverse aortic constriction (TAC) surgery to induce pressure overload hypertrophy and heart failure with reduced ejection fraction LVPWd and LVPWs were measured using high-resolution echocardiography at baseline and every 2 weeks thereafter for a period of 14 weeks. The H2S donor, (JK1) was administered starting at 3 weeks post-TAC at a dose of 100 μg/kg administered once daily via intraperitoneal injection.\nas §1, with “10.” for “9.”, “ejection fraction (EF)” for “posterior wall thickness (PW) measured at end-diastole (d)”, “fractional shortening (FS)” for “at end-systole (s) in millimeters (mm)”, “fraction. LVEF (%)” for “fraction LVPWd”, “LVFS (%)” for “LVPWs”, “injection. LVEF and LVFS are clinically utilized measures of cardiac function.” for “injection.”"}, "[2]": {"test_system": "myocardial ischemia/reperfusion (MI/R) injury", "test": "Circulating cardiac troponin I in MI/R murine model", "conditions": "50 μg/kg (p<0.05) or 100 μg/kg (p<0.01), blood at 4 h of reperfusion", "experimental": "Blood was collected at 4 hours of reperfusion, and circulating cardiac troponin I levels were measured.\nSurgical occlusion of the left coronary artery (LCA), infarct size determination, and troponin I (TnI) measurements were performed as previously described. ^1C57BL6/J male mice (10-12 weeks of age) were anesthetized using pentobarbital (50 mg/kg) and ketamine (60 mg/kg) and maintained under anesthesia throughout the procedure with additional administration of pentobarbital (50 mg/kg). […] A hair removal compound was used to remove the hair on the chest of mice. The area was then cleaned using betadine and alcohol wipes alternating 3 times. The chest was opened with via a median sternotomy and the exposed ribs, muscle, and tissues were cauterized to prevent bleeding. The LCA was visualized using a dissection microscope with a fiber optic light ring, and using a 7-0 silk suture, a 3-5 mm piece of PE-10 tubing was secured over the LCA, occluding the artery. Mice were subjected to 45 min of myocardial ischemia followed by reperfusion. At the time of reperfusion, an injection of vehicle (saline), JK-1 (50 μg/kg and 100 μg/kg), or JK-2 (50 μg/kg and 100 μg/kg) was given i.c. The chest was closed in layers, closing the muscle layer first, then the skin. Mice were removed from ventilation once pedal reflex returned and it was determined that respiration was spontaneous. Mice were placed in a recovery cage and supplied with 100% O2 via a nose cone. Reperfusion was allowed for 24 h, and blood samples for TnI measurements were taken at 4 h after time of reperfusion.\nBlood samples were collected via a tail vein at 4 h of reperfusion. Cardiac troponin I level was measured in serum using the Life Diagnostic high sensitivity mouse cardiac troponin I ELISA kit following the manufacturer's instructions."}, "[3]": {"test_system": "myocardial ischemia/reperfusion (MI/R) injury", "design": "species or system mice", "conditions": "mouse, in vivo"}, "[4]": {"format": "physicochemical", "conditions": "for H2S release under weak acidic pH: pH 5 and 6, PBS buffer; for H2S release under neutral and weak basic pH: pH 7.4 and 8, PBS buffer"}, "HeLa cells": {"test_system": "HeLa cells", "test": "H2S production in cells, WSP-5 fluorescent probe imaging", "format": "cell-based", "conditions": "200 μM donor, 1 h"}, "[5]": {"test": "Circulating free H2S level, gas chromatography and chemiluminescence", "format": "in vivo, mice", "conditions": "plasma, 15 minutes after administration, 50 μg/kg (p<0.05) or 100 μg/kg (p<0.001)", "method": "FIG. 5. […] Blood was collected 15 minutes after the administration of JK-2. Circulating free H2S levels were measured from plasma samples using gas chromatography and chemiluminesence methods."}, "[6]": {"conditions": "100 μM donor, PBS buffer pH 5.0, 6.0, 7.4, 8.0, time-dependent"}}, "note": "Several values for one entry are separate records, joined by “and”; a condition that tells them apart may be missing. Identical values can stand only once. Entries after “also recorded” stand apart in the source; their conditions may differ. Like-named read-outs stand apart in the source and are kept apart here."}
{"smiles": "OO", "note": "[H2O2, reference compound]", "values": [{"measurement": "H2O2 median lethal concentration", "setting": "H9c2 cardiomyoblasts; H9c2 cells, A/R treatment together with H2O2 (100-400 μM)", "result": "approximately 400 μM"}]}
{"smiles": "O=C(O)CNP(O)(=S)c1ccccc1", "note": "(centres unmarked) [JK-1]", "values": [{"measurement": "interventricular septum thickness (IVSd, IVSs)", "setting": "[1]", "result": "significantly preserved IVSd and IVSs"}, {"measurement": "left ventricular dilatation (LVEDD, LVESD)", "setting": "[1]", "result": "significantly reduced left ventricular dilatation"}, {"measurement": "left ventricular ejection fraction (LVEF) and fractional shortening (LVFS)", "setting": "[1]", "result": "significantly preserved both LVEF and LVFS"}, {"measurement": "left ventricular posterior wall thickness (LVPWd, LVPWs)", "setting": "[1]", "result": "significantly preserved left ventricular wall thickness"}, {"measurement": "circulating cardiac troponin I level", "setting": "[2]", "result": "significantly lowered; also recorded: significantly reduced"}, {"measurement": "myocardial infarct size", "setting": "[3]", "result": "significantly reduced"}, {"measurement": "reduction of infarct size per area-at-risk (INF/AAR)", "setting": "[3]", "result": "43% and 64%"}, {"measurement": "H2S release", "setting": "[4]; [6]", "result": "much-enhanced H2S releasing ability"}, {"measurement": "H2S release under weak acidic pH", "setting": "[4]", "result": "only released H2S under weak acidic pH"}, {"measurement": "H2S release under neutral and weak basic pH", "setting": "[4]", "result": "barely detectable H2S"}, {"measurement": "H2S production in cells (WSP-5 fluorescence)", "setting": "HeLa cells", "result": "much weaker fluorescence"}, {"measurement": "protection against A/R-induced cellular damage (cell viability)", "setting": "H9c2 cardiomyoblasts", "result": "significant attenuation of A/R induced damage"}]}
{"smiles": "O=C([O-])C(Cc1ccccc1)NP([O-])(=S)c1ccccc1.[Li+].[Li+]", "note": "(centres unmarked) [JK-2]", "values": [{"measurement": "circulating cardiac troponin I level", "setting": "[2]", "result": "significantly lowered; also recorded: significantly reduced"}, {"measurement": "myocardial infarct size", "setting": "[3]", "result": "significantly reduced"}, {"measurement": "reduction of infarct size per area-at-risk (INF/AAR)", "setting": "[3]", "result": "55% and 56%"}, {"measurement": "circulating free H2S level", "setting": "[5]", "result": "significant increase; also recorded: significantly higher"}, {"measurement": "H2S release", "setting": "[4]; [6]", "result": "much-enhanced H2S releasing ability"}, {"measurement": "H2S release under weak acidic pH", "setting": "[4]", "result": "much faster release"}, {"measurement": "H2S release under neutral and weak basic pH", "setting": "[4]", "result": "slow and sustained H2S release"}, {"measurement": "H2S production in cells (WSP-5 fluorescence)", "setting": "HeLa cells", "result": "strong fluorescence"}, {"measurement": "protection against A/R-induced cellular damage (cell viability)", "setting": "H9c2 cardiomyoblasts", "result": "significant attenuation of A/R induced damage"}]}
{"smiles": "O=C([O-])C1CCCN1P([O-])(=S)c1ccccc1.[Li+].[Li+]", "note": "(centres unmarked) [JK-5]", "values": [{"measurement": "H2S release", "setting": "[4]; pH 5", "result": "not to release H2S at all"}]}
